Experimental data: patent US9682928B2 (NeuroPro Therapeutics, Inc., priority 2009, dated 2017)
Entries after “also recorded” stand apart in the source; their conditions may differ. Read-outs that look alike come from different tables or passages of the source.

What was measured:
Male CD-1 mice = experiment: Chung (SNL) neuropathic pain study in mice; type: in vivo, mouse; conditions: for Other overt toxicity: in vivo, ip; for Reversal of tactile hypersensitivity: mice, i.p., SNL
Excerpt: Male CD-1 mice (25-35 g, Charles River) were used for all studies. Mice were housed in groups of five in Plexiglas chambers with food and water available ad libitum. All animals were maintained on a 12 hr light/dark cycle (lights on at 7:00 AM) in a temperature- and humidity-controlled animal colony. The health status of the animals used in this study was examined on arrival. Only animals in good health were acclimatized to laboratory conditions and used in the study. The acclimation period to the vivarium was a minimum of 7 days. All animal experiments were performed under an approved protocol in accordance with institutional guidelines and in accordance with the Guide for the Care and Use of Laboratory Animals as adopted and promulgated by the National Institutes of Health.
NTP has provided adequate amounts of NTP-2014 and NTP-2026 along with detailed instructions for preparing injection solutions. Gabapentin (Gallipot, St. Paul, Minn.) was dissolved in physiological saline. Injections were made using a 1-mL syringe with a 30-gauge needle at a volume of 10 ml/kg body weight. Animal body weights were measured prior to surgery and then on the morning of Day 7 (post-SNL testing). For i.p. drug administration, each mouse was firmly grasped by the nape of the neck and the tail was tucked between the last two fingers and palm of the technician's hand. The back of the mouse iwasarched slightly backwards exposing the abdominal region. The needle was inserted through the skin and abdominal musculature into the peritoneal cavity just off of the midline. Mice are immediately returned to the testing cage until behavioral testing.
NTP2026 (56, 100 and 180 mg/kg, i.p.); NTP 2014 (32, 56 and 100 mg/kg, i.p.); Gabapentin (100 mg/kg, i.p.); Vehicle Control (10% TPGS in benzoate buffer, i.p.).
SNL surgeries were performed based on the procedures described for rats (Kim and Chung, 1992) and modified for mice (Wang et al., 2001). Anesthesia was maintained with 0.5% halothane in O2 and body temperature was maintained using a heated water blanket. After surgical preparation of the mice, a 1-cm paraspinal incision was made at the level L4-S2. The L5 and L6 spinal nerves were exposed and tightly ligated using a 4-0 silk suture. The ligation was made distal to the dorsal root ganglion but before the fibers joined the sciatic nerve. The incisions were then closed, and animals are allowed to recover. […] Mechanical thresholds were determined by measuring the paw withdrawal threshold to probing with a series of calibrated von Frey filaments as described below.
Non-noxious sensory thresholds of the mice were determined by paw withdrawal […] to probing with a series of calibrated (0.02-2.34 gm on a logarithmic scale) von Frey filaments (“up and down” method) according to Chaplan et al. (1994) and analyzed using a Dixon (1980) nonparametric test. Results are expressed as the mean withdrawal thresholds. Baseline latencies/thresholds were determined prior to surgery, on the morning of Day 7, and then between 20-60 minutes post dosing with the test drugs. The post-drug time corresponds to the time of maximal activity for these compounds in the tail-flick assay.

NKCC1 = molecular target: T1, NKCC1 (Homo sapiens, UniProt P55011); experiment: NKCC1 Rb+ influx assay in human adult skin fibroblasts; type: cell-based
T1 construct: endogenous in cells; host or cells: human adult skin fibroblasts (primary culture)
T1 sequence (P55011 whole entry): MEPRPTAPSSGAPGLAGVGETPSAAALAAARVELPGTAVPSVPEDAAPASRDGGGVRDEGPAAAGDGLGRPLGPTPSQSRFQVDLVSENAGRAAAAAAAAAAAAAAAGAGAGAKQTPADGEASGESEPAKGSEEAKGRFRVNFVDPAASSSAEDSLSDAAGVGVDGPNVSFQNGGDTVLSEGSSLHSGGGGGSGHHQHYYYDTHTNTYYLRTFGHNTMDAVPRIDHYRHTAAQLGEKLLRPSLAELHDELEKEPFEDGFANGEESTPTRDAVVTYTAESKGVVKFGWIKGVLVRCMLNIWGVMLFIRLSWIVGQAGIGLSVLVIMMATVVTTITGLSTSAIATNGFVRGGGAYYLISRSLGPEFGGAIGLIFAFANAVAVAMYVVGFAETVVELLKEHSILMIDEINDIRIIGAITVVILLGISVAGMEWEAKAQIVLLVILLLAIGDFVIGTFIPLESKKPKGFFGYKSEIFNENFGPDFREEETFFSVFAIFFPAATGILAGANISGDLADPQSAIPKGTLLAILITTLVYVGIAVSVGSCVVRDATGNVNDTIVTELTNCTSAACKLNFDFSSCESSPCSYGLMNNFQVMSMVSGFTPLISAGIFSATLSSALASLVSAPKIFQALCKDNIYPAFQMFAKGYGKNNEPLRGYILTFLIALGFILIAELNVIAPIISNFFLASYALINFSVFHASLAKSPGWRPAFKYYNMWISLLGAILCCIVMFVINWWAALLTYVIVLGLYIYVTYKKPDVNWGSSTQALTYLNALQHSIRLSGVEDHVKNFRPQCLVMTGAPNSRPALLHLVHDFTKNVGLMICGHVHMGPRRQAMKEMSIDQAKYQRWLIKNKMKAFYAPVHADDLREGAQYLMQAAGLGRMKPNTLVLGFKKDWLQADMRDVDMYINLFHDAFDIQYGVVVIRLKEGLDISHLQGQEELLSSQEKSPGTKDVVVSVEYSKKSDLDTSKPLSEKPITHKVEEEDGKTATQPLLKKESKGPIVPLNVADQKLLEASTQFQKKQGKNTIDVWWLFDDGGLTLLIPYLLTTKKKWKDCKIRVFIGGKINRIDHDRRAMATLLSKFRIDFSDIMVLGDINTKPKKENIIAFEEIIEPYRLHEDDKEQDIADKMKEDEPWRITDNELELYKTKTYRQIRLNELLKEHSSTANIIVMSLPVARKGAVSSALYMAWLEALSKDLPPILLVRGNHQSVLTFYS
Method: The protocol may be done in accordance with Panet and Alan The Journal of Cell Biology, Volume 114, Number 2, July 1991 337-342. Human adult skin fibroblasts were seeded at 3 concentrations: 3000/5000/10 000 on 96 well culture plates with DMEM supplemented with 10% FCS and 4 mM glutamine (37° C., CO2). Medium was replaced with DMEM supplemented with 0.2% FCS, 4 mM glutamine and 20 mM HEPES (37° C., CO2). The NKCC assay may be performed according the standard operating procedure as described in Chassande, et al. (1988) “The Na+/K+/CI^− cotransport in C6 glioma cells.” Eur. J. Biochem. 171: 425-433.
This allows for the administration of the compounds described herein described herein without unwanted diuretic side effects.

Sprague-Dawley rats = experiment: Kainic acid induced seizures in rats; type: in vivo, rat; design: key to Seizures Severity Mean ± SD (grade 0 to IV): seizure grade 0 = no response to IV = status epilepticus; conditions: for change in vivo at 20 µmol/kg / change in vivo at 100 mg/kg: Rattus norvegicus, 2 h; for change in vivo at 100 mg/kg: ip; for Reduction in seizure score / severity: bumetanide 100 mg/kg i.p. (274 umoles/kg); for Reduction in seizure severity / seizure score / Reduction in seizures / seizure activity: kainic acid 15 mg/kg, rat, 20 μmoles/kg (bumetanide 7.3 mg/kg i.p.)
Method: Formulation of kainic acid was performed by NTS as a stock solution by reconstituting kainic acid with (100%) saline that was stored at 4° C. Vehicle control received saline solution. […] The research investigators were blinded to the treatment groups.
Solutions were prepared fresh daily just prior to use; dosing of all 10 rats with any given compound occurred on a single day after preparing the dosing solution. […] Unused remaining dosing solutions were stored frozen.
Animals were maintained in a temperature- and light-controlled environment in accord with the principles and procedures of the National Institutes of Health Guidelines for Care and Use of Laboratory Animals. Seizures were induced in adult, male Sprague-Dawley rats (260-300 g) by injection of KA (15 mg/kg, i.p.). In addition, animals were injected with test compounds following kainic acid to determine the effects on protection from epilepsy. Animals were monitored behaviorally for seizures for 2 hours after injection.
Seizure activity was initially characterized as either yes (1) or no (0) within a 2 hour period following injection of KA. A seizure severity grade was assigned based on the maximal response achieved on a scale from 0 to IV as follows: 0, no response; I, single limb clonus and scratching; II, multiple limb clonus and staggering gait; […], limb clonus, tonic extension of limbs and falling; IV, continuous grade III seizures for longer than 30 min (status epilepticus).
The results were expressed as the mean±standard deviation (SD). The significance of difference in the epileptic data was analyzed using a one-way analysis of variance (ANOVA) followed by Fisher's post hoc test. Repeated-measures ANOVA were computed on the monitoring data and the significance of the difference among groups were evaluated by Fisher's post hoc test.
All groups were subjected to kainic acid.
The induction of seizures in rats with kainic acid was determined as either yes seizures (1) or no seizures (0).

[1] = KA 15 mg/kg i.p., 20 μmoles/kg IP
[2] = KA 15 mg/kg i.p., 20 μmoles/kg IP, 2 hours
[3] = group 11, bumetanide 100 mg/kg (274 umoles/kg)
[4] = 20 μmoles/kg IP, vs DMSO control

## CCCCN(CCCC)c1cc(C(=O)O)cc(S(N)(=O)=O)c1Oc1ccccc1 [NTP-2014, 3-Aminosulfonyl-5-N,N-dibutylamino-4-phenoxybenzoic acid]
Male CD-1 mice; male, CD-1, mouse
  Other overt toxicity: high dose group (180 mg/kg). No other
Male CD-1 mice
  Reversal of tactile hypersensitivity: dose-dependent reversal of tactile hypersensitivity; also recorded: effective analgesic effects; also recorded: Dose-dependent, very significant
Male CD-1 mice; mouse
  Other overt toxicity: No other overt toxicity
NKCC1
  Inhibition of NKCC1 in the presence of a co-transporter activating mitogen (FGF): did not inhibit
NKCC1; primary cell cultures
  Inhibition of NKCC1 chloride transport: no inhibition

## CCCCNc1cc(C(=O)O)cc(S(N)(=O)=O)c1Oc1ccccc1 [Bumetanide, reference compound]
Sprague-Dawley rats; [1]
  Seizures Severity Mean ± SD (grade 0 to IV): 0.7000 ± 0.8233
Sprague-Dawley rats; [2]
  Seizures Mean ± SD (1 = yes, 0 = no): 0.5000 ± 0.5270
Sprague-Dawley rats; 20 μmoles/kg IP, vs DMSO control, read-out: Percent reduction in Seizures
  change in vivo at 20 µmol/kg: -44.4%
Sprague-Dawley rats; 20 μmoles/kg IP, vs DMSO control, read-out: Percent reduction in Seizures Severity
  change in vivo at 20 µmol/kg: -70.8%
Sprague-Dawley rats; read-out: Percent reduction in Seizures
  change in vivo at 100 mg/kg: -88.9%
Sprague-Dawley rats; read-out: Percent reduction in Seizures Severity
  change in vivo at 100 mg/kg: -95.8%
Sprague-Dawley rats
  Reduction in seizure score / severity: seizures (S); 96%
  Reduction in seizure severity / seizure score: seizures (NS); 71%
  Reduction in seizures / seizure activity: 44% reduction in
Sprague-Dawley rats; listed as bumetanide
  Reduction in seizure score / severity: 95.8%
  Reduction in seizure severity / seizure score: 70.8%
Sprague-Dawley rats; bumetanide 100 mg/kg i.p., listed as bumetanide
  Reduction in seizures: 88.9%
Sprague-Dawley rats; [3]
  Seizures Mean ± SD (1 = yes, 0 = no): 0.1000 ± 0.3162
  Seizures Severity Mean ± SD (grade 0 to IV): 0.1000 ± 0.3162

## CCCCNc1cc(C(=O)N(C)CCCN(C)C)cc(S(N)(=O)=O)c1Oc1ccccc1 [NTP-2026, N-(3-(Dimethylamino)propyl)-N-methyl 3-Aminosulfonyl-5-N-butylamino-4-phenoxybenzamide]
Male CD-1 mice
  Reversal of tactile hypersensitivity: dose-dependent reversal of tactile hypersensitivity; also recorded: Dose-dependent, significant reversal of

## CCCCNc1cc(C(=O)NN2CCOCC2)cc(S(N)(=O)=O)c1Oc1ccccc1 [NTP-2024, N-Morpholinyl 3-Aminosulfonyl-5-N-butylamino-4-phenoxybenzamide]
Sprague-Dawley rats; [4]
  Percent reduction in Seizures: −88.9%
  Percent reduction in Seizures Severity: −95.8%
Sprague-Dawley rats; [1]
  Seizures Severity Mean ± SD (grade 0 to IV): 0.1000 ± 0.3162
Sprague-Dawley rats; [2]
  Seizures Mean ± SD (1 = yes, 0 = no): 0.1000 ± 0.3162
Sprague-Dawley rats
  Reduction in seizure severity / seizure score: 96% reduction in
  Reduction in seizures / seizure activity: 89% reduction in
